Assay [1] has as its target T1, Estrogen receptor (Homo sapiens, UniProt P03372).
T1 sequence (P03372 whole entry): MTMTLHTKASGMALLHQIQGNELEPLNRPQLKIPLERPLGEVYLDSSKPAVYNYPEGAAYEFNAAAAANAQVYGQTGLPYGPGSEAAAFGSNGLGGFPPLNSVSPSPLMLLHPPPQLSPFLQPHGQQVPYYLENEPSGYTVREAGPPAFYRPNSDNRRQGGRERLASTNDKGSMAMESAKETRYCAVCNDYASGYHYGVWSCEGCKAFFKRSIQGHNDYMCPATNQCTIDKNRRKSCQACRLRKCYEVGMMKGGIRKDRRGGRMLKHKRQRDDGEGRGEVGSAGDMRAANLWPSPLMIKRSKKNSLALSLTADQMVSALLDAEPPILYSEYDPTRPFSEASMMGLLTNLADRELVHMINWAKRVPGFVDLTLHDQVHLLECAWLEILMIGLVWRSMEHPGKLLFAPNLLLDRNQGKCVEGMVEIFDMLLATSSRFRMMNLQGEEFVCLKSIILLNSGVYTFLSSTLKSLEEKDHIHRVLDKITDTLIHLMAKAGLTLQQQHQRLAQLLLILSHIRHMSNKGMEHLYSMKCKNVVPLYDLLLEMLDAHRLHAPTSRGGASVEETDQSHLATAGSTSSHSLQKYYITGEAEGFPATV
Briefly: Human ERalpha Reporter Assa. How it is done: All reagents used in this assay was supplied in the Human ERα Reporter Assay by Indigo Biosciences # IB00401. In an effort to screen selective estrogen receptor degraders (SERDs), the Human ERα Reporter Assay, supplied by Indigo Biosciences, was utilized to quantify antagonist functional activity against the human estrogen receptor. Reporter cells were thawed at 37° C. and added to pre-warmed to 37° C. cell recovery medium (CRM). Stock concentration of 17β-estradiol was serially diluted in CRM. […] Cells plus 17β-estradiol were dispensed in a kit-supplied white walled 96-well plate. Concentrated stocks of test compounds were diluted to 2× working concentrations in cell screening medium (CSM). 2× concentrated compounds were added to the plated cells in a dose-dependent manner resulting in a final concentration range of 1E-11 to 1E-5 M and a final 17β-estradiol concentration of 8E-10 M. Assay plates were incubated for 24 hours in a humidified 37° C. incubator. Culture medium was removed from the assay plates by inversion. Detection substrate and buffer was warmed to room temperature, mixed thoroughly, and immediately added to the assay plates. […] Luminescence was measured in a Synergy HTX luminescence plate reader. Data is processed utilizing GraphPad Prism 7 by graphing the relative light units measured at each compound concentration.

For assay [2], the target named is T1, Estrogen receptor. Briefly: Estrogen Receptor (ER) Degradation Assay. As to the method: A screening strategy was implemented utilizing an In-Cell Western assay to measure their ability to degrade the estrogen receptor in vitro. MCF7 cells, which are estrogen receptor positive, were plated at a cell density of […] into black walled clear bottom 96-well plates. Cells were incubated in phenol red free Dulbecco's Modified Eagle Media (DMEM) supplemented with 8% charcoal-stripped fetal bovine calf serum for 24 hours in a humidified 37° C. incubator. Concentrated stock compounds were diluted to 10× in complete media. Compounds were added to the plated cells in a dose-dependent manner ranging from 1E-12 to 1E-05 M and incubated for an additional 24 hours at 37° C. Culture medium was removed from the culture plates by gentle inversion. Cells were fixed in 4% paraformaldehyde in 1× phosphate buffered saline-calcium magnesium free (PBS-CMF) for 15 minutes at room temperature, washed 3 times for 5 minutes each in 1×PBS-CMF. […] ER protein expression was assessed by the Licor Odyssey CLx imaging system using Image Studio v5.2. Data is processed utilizing GraphPad Prism 7 by subtracting background from the vehicle and setting the vehicle to 100% ER activity, followed by comparing treated samples to vehicle.

Turning to `Cc1cc(F)cc(C)c1C(=O)c1sc2cc(O)ccc2c1Oc1ccc(OCCN2CCCCC2)cc1` [US10208011, Compound 106], the IC50 on Estrogen receptor [1] was less than 1000 nM.
The same measure, in the same setting: as for `Cc1cc(F)cc(C)c1C(=O)c1sc2cc(O)ccc2c1Oc1ccc(OCCN2CCCCCC2)cc1` [US10208011, Compound 107], the figure is less than 1000 nM.
On to `Cc1cc(F)cc(C)c1C(=O)c1sc2cc(O)ccc2c1Oc1ccc(OCCN2CCCC2)cc1` [US10208011, Compound 108], for which the IC50 against Estrogen receptor [2] is less than 1000 nM.

The record behind these values is BindingDB's records for patent US10208011 (G1 Therapeutics, Inc., 2019).
